The values below come from US20090264384A1, “INDOLE, BENZIMIDAZOLE, AND BENZOLACTAM BORONIC ACID COMPOUNDS, ANALOGS THEREOF AND METHODS OF USE THEREOF” (Nuada, Inc., priority 2004, published 2009).

Structures are written as SMILES.

One assay addresses T1, Choline transporter (Rattus norvegicus, UniProt Q9JMD7).
T1 construct: rat striatum; from tissue; host or cells: rat striatum
T1 sequence (Q9JMD7 1-580): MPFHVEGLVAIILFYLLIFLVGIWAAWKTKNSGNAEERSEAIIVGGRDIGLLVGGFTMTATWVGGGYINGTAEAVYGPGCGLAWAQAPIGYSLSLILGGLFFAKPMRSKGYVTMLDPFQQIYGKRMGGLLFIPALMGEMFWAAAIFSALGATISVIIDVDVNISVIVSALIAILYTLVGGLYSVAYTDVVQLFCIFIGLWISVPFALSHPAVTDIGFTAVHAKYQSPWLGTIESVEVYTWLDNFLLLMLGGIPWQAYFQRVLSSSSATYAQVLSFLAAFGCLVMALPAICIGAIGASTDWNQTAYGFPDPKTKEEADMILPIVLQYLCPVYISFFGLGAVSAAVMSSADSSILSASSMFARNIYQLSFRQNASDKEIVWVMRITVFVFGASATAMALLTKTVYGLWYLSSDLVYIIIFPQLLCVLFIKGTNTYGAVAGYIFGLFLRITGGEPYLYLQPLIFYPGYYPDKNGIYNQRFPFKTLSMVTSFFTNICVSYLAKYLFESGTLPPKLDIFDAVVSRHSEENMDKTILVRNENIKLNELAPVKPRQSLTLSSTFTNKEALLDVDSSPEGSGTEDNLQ
As to the kind of experiment: Choline transporter binding assay. Particulars: 1.0E−05 M; read-out: % Inhibition of Control Specific Binding.

A further assay addresses T2, β1(h) (Homo sapiens, UniProt P08588).
T2 construct: expressed in transfected cells; host or cells: HEK-293 cells
As to the kind of experiment: β1(h) binding assay. Particulars: read-out: % Inhibition of Control Specific Binding.

In the next assay the test system is H3. As to the kind of experiment: H3 binding assay. The following applies: 1.0E−05 M. Further details: species or system rat.
In assay [1] the target is T3, Phenylethanolamine-N-methyl transferase (Bos taurus, UniProt P10938).
T3 construct: bovine adrenal; from tissue; host or cells: bovine adrenal medulla
T3 sequence (P10938 whole entry): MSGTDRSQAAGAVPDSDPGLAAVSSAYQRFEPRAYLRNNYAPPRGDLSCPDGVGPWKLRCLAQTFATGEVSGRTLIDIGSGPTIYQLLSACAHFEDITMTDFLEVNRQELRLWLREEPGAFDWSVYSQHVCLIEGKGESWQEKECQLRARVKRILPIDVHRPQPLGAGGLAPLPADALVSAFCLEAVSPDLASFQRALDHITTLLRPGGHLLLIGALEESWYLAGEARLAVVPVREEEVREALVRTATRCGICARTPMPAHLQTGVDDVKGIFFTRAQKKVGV
As to the kind of experiment: Phenylethanolamine-N-methyl transferase enzyme assay. It counts as biochemical, bovine. Particulars: 1.0E−05 M.

For the next assay, the target named is T4, GABA transaminase (Rattus norvegicus, UniProt P50554).
T4 construct: rat brain; from tissue; host or cells: rat brain
T4 sequence (P50554 28-500): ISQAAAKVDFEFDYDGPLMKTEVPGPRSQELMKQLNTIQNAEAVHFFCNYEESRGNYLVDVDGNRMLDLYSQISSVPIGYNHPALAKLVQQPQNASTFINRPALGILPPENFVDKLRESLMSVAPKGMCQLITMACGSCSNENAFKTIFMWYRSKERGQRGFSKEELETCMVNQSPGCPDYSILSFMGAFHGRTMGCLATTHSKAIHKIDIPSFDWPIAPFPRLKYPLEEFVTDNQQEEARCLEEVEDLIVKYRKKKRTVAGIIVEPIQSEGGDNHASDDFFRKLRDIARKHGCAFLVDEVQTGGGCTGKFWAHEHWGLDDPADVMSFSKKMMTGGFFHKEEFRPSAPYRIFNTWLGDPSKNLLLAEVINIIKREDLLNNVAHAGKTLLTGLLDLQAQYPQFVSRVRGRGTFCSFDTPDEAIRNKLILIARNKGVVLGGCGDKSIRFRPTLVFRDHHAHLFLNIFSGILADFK
As to the kind of experiment: GABA transaminase enzyme assay. It counts as biochemical. The following applies: 1.0E−05 M.

A further assay concerns Na^+ channel (site 2). It counts as binding, rat. Particulars: 1.0E−05 M.
In the next assay the test system is BZD (central). As to the kind of experiment: BZD (central) binding assay. Further details: species or system rat. Particulars: 1.0E−05 M.
The target of another assay is T5, 5-HT transporter(h) (Homo sapiens, UniProt P31645).
T5 construct: expressed in transfected cells; host or cells: HEK-293 cells
As to the kind of experiment: 5-HT transporter(h) binding assay. The following applies: read-out: % Inhibition of Control Specific Binding.

In the next assay the target is T6, CB1(h) (Homo sapiens, UniProt P21554).
T6 construct: expressed in transfected cells; host or cells: HEK-293 cells
As to the kind of experiment: CB1(h) binding assay. Particulars: 1.0E−05 M; read-out: % Inhibition of Control Specific Binding.

The target in the next assay is T7, Guanylyl cyclase (basal) (Bos taurus, UniProt P16068+P19687).
T7 construct: bovine lung; from tissue; host or cells: bovine lung
T7 sequence (P19687 whole entry): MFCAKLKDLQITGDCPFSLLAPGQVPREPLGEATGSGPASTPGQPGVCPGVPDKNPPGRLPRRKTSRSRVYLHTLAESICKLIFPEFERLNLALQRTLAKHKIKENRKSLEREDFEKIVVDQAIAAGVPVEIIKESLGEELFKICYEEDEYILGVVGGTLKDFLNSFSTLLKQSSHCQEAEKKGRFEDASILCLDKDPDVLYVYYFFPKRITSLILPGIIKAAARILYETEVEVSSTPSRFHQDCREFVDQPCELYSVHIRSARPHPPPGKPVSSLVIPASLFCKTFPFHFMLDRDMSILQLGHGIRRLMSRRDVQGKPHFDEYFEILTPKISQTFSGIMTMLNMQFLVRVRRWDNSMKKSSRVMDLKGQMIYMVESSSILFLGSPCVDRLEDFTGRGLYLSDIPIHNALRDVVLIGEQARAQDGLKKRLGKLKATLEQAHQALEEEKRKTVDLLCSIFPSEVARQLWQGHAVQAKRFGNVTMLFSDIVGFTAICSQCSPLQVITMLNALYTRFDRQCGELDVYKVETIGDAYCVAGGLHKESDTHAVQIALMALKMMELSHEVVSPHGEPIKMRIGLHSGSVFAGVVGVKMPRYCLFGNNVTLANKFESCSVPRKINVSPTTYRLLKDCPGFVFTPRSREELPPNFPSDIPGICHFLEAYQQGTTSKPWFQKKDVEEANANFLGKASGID
T7 sequence (P16068 whole entry): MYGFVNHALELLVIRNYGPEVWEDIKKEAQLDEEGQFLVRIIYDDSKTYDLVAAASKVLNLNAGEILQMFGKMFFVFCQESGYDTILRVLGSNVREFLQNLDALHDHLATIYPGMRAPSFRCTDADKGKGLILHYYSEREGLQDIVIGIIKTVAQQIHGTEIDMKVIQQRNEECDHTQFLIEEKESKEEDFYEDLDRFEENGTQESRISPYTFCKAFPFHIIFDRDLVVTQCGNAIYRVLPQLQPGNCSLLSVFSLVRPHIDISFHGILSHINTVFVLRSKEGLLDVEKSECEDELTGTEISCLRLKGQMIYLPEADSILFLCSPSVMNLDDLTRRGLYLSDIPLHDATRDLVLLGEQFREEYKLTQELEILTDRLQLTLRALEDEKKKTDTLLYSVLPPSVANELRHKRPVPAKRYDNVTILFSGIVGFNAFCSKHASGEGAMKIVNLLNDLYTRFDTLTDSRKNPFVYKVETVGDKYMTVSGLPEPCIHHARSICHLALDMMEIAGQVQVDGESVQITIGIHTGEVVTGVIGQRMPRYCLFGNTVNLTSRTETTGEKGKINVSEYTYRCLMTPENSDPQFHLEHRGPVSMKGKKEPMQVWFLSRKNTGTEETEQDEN
As to the kind of experiment: Guanylyl cyclase (basal) enzyme assay. It counts as biochemical, bovine. Particulars: 1.0E−05 M.

For a further assay, the system named is NMDA. As to the kind of experiment: NMDA binding assay. Also noted: species or system rat. Particulars: 1.0E−05 M.
The test system of the next assay is P2Y. As to the kind of experiment: P2Y binding assay. Further details: species or system rat. The following applies: 1.0E−05 M.
Another assay has as its target T8, ORL1(h) (NOP) (Homo sapiens, UniProt P41146).
T8 construct: expressed in transfected cells; host or cells: HEK-293 cells
As to the kind of experiment: ORL1(h) (NOP) binding assay. The following applies: 1.0E−05 M; read-out: % Inhibition of Control Specific Binding.

In another assay the target is T9, K^+ATP channel (Rattus norvegicus, UniProt Q09429).
T9 construct: rat cerebral; from tissue; host or cells: rat cerebral cortex
T9 sequence (Q09429 whole entry): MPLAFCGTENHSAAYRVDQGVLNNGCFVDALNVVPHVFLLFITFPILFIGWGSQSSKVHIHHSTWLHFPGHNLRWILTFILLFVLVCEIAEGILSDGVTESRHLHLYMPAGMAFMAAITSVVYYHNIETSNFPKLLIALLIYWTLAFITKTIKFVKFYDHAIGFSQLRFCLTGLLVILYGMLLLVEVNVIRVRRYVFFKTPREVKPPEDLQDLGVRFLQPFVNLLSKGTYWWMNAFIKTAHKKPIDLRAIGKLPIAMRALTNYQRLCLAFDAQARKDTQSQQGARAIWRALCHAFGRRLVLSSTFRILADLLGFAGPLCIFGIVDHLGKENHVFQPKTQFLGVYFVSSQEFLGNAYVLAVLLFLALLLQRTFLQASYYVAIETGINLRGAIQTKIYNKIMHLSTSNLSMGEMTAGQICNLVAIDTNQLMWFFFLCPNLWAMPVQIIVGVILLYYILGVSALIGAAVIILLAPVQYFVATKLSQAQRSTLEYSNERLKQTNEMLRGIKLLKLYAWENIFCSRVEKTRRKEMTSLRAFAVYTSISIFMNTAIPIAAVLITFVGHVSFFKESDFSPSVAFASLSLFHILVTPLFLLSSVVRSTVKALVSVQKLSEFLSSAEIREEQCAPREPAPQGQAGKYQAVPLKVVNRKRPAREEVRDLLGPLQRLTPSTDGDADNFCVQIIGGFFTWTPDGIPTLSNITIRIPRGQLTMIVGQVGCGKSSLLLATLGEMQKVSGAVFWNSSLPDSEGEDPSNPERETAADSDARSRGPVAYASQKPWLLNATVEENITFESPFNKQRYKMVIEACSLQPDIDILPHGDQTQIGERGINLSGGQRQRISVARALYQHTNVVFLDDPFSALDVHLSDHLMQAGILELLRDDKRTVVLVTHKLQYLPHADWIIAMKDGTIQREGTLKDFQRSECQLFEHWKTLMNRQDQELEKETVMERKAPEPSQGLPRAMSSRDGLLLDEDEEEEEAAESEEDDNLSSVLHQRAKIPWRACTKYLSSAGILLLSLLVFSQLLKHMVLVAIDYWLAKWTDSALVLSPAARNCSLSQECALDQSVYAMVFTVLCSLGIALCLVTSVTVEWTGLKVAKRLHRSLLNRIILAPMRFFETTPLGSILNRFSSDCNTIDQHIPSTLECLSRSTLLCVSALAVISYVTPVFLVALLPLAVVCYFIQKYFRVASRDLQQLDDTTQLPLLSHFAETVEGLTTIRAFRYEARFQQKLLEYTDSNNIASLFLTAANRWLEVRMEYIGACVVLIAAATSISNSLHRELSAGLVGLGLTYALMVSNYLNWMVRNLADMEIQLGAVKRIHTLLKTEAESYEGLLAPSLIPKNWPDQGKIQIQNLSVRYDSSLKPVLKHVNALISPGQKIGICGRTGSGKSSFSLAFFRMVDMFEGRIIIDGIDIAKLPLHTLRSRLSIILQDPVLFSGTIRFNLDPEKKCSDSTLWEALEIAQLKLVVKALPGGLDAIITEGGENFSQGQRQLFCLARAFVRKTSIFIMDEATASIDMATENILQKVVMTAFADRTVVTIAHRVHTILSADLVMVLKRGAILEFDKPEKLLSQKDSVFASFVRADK
T9 sequence (P70673 whole entry partner): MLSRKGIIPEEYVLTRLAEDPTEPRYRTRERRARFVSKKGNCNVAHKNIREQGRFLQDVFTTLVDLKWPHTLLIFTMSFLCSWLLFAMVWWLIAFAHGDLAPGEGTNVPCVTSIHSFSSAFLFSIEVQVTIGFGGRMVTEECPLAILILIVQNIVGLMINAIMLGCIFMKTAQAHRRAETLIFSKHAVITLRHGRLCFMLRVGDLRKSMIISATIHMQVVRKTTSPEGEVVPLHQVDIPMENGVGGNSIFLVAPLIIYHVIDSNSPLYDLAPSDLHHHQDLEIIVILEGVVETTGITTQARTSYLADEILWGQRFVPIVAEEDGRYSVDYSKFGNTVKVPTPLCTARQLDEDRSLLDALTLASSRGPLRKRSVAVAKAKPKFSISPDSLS
As to the kind of experiment: K^+ATP channel binding assay. The following applies: 1.0E−05 M; read-out: % Inhibition of Control Specific Binding.

In a further assay the target is T10, D1(h) (Homo sapiens, UniProt P21728).
T10 construct: expressed in transfected cells; host or cells: CHO cells
T10 sequence (P21728 whole entry): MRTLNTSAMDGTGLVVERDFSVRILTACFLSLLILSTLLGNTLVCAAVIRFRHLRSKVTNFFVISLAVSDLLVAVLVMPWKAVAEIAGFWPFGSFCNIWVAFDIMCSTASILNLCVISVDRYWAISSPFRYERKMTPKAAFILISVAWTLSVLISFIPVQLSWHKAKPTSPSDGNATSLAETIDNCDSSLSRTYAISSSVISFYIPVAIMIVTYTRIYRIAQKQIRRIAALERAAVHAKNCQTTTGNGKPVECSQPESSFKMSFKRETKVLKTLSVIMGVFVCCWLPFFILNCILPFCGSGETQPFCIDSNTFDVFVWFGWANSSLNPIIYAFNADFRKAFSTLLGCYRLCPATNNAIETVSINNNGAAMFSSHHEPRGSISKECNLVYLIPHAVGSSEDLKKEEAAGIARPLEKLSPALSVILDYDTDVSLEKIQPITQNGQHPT
As to the kind of experiment: D1(h) binding assay. Particulars: read-out: % Inhibition of Control Specific Binding.

Another assay deals with T11, ETB(h) (Homo sapiens, UniProt P24530).
T11 construct: expressed in transfected cells; host or cells: CHO cells
As to the kind of experiment: ETB(h) binding assay. The following applies: read-out: % Inhibition of Control Specific Binding.

For a further assay, the target named is T12, AT2(h) (Homo sapiens, UniProt P50052).
T12 construct: expressed in transfected cells; host or cells: Hela cells
T12 sequence (P50052 whole entry): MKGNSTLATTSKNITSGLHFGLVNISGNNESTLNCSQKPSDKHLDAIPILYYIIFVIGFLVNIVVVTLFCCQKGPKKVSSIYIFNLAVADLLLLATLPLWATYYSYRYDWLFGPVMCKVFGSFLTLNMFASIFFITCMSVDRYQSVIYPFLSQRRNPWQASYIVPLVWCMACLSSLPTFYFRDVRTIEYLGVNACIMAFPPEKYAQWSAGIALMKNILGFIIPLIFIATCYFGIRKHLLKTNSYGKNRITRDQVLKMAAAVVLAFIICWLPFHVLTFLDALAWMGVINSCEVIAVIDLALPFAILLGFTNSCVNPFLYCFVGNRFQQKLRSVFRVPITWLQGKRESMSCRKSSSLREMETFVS
As to the kind of experiment: AT2(h) binding assay. Particulars: read-out: % Inhibition of Control Specific Binding.

In a further assay the target is D4.4(h) (Homo sapiens, UniProt P21917). As to the kind of experiment: biochemical. The following applies: 1.0E−05 M; read-out: % Inhibition of Control Specific Binding.

In general, inhibition refers to the change of the read-out against control, counted positive when it falls. Turning to `N#Cc1ccc2c(ccn2CCCCCB(O)O)c1` [Example 20, 5-(5-cyano-1H-indol-1-yl)pentylboronic acid], the inhibition at 10 µM on Choline transporter was 1%; on β1(h), 7%; at 5-HT transporter(h), 90%; at CB1(h), -2%; at ORL1(h) (NOP) it was 0%; on K^+ATP channel, 25%. The inhibition at 10 µM came to 0% at D1(h), 10% at ETB(h), 3% at AT2(h) and 1% on D4.4(h). Also, the “% Inhibition of Control Specific Binding” value in the assay with H3 is recorded as 0%; in the assay on Na^+ channel (site 2), 13%; with BZD (central), 18%; in the assay with NMDA, 19%; in the assay on P2Y, −19%. Moreover, the “% Inhibition of Control Values” is 1% in assay [1] and −2% on GABA transaminase. Moreover, the “% Stimulation Relative to Control” value on Guanylyl cyclase (basal) is 0%.
